Values joined by “and” are separate entries in the source; they are usually repeats but may differ in a detail not shown here. Equal values may be shown once.
Assays:
Experiment in all cases: biochemical
Type in all cases: binding
SfurOBP2 = SfurOBP2 (Sogatella furcifera, UniProt V5T759)
Protocol: (§1) Thirty-six rice odorants ([He et al., 2014]; [Wang et al., 2017]) and 1-N-phenyl-naphthylamine (1-NPN) were purchased from Sigma-Aldrich (St Louis, MO, USA). These odorants and 1-NPN were dissolved in high-performance liquid chromatography (HPLC) purify grade methanol for 1.0 mM as work solution.
(§2) Fluorescence competitive binding assays were performed on Tecan Spark 10M (Tecan Group Ltd., Männedorf, Switzerland) with the F96 Black ELIAS Plate (Sangon) ([Khuhro et al., 2017]; [Liu et al., 2017]). The solutions were excited at 337 nm and emission spectra were recorded between 390 and 490 nm. First, to test the binding constants of 1-NPN to the SfurOBPs, a 2.0 µM solution of protein in 50 mM Tris-HCl (pH = 7.4) was titrated with 1 mM 1-NPN to achieve virous concentrations. Next, the competitive binding of each odorant was measured using the 1-NPN as fluorescent reporter and odorant as competitor. The concentrations of protein and 1-NPN were both 2.0 µM, the odorant added after protein and 1-NPN added into the well of ELIAS Plate for 2 min. The final concentrations of each competitor were 2, 4, 6, 8, 10, 12, 14, 16, 18 and 20 µM. After 2 min of odorant added, the fluorescence intensity was measured and recorded. The volume of mixed solution in each well was maintained at 250 µL. Each interaction was performed in triplicates.
(§3) GraphPad Prism 7.0 software (GraphPad Software, Inc., La Jolla, CA, USA) was used to calculated and generated the binding constants (K1−NPN) of 1-NPN to SfurOBPs and relative Scatchard plots ([Ban et al., 2003]; [Li et al., 2016]). Dissociation constant (Ki) of each odorant to SfurOBP was computed from the corresponding IC50 value (the half maximal inhibitory concentration), using the following equation: Ki=[IC50]/(1 + [1-NPN]/K1−NPN), where [1-NPN] is the free concentration of 1-NPN and K1−NPN is the dissociation constant of the complex protein/1-NPN.

SfurOBP11 = SfurOBP11 (Sogatella furcifera, UniProt V5T6E3)
Protocol: as §1, §2, §3

SfurOBP3 = SfurOBP3 (Sogatella furcifera, UniProt V5T818); conditions: OBP3, three replicate columns
Protocol: as §1, §2, §3

SfurOBP1 = SfurOBP1 (Sogatella furcifera, UniProt V5T8N5); conditions: OBP1, three replicate columns
Protocol: as §1, §2, §3

Sequence of SfurOBP2 (V5T759 entry or part of it): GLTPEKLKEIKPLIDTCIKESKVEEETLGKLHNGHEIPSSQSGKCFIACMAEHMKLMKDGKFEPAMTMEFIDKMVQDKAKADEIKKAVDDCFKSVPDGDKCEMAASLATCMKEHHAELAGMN
Sequence of SfurOBP11 (V5T6E3 entry or part of it): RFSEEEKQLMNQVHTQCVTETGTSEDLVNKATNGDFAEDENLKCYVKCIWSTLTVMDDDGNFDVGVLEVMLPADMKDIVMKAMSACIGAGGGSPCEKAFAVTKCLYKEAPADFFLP
Sequence of SfurOBP3 (V5T818 entry or part of it): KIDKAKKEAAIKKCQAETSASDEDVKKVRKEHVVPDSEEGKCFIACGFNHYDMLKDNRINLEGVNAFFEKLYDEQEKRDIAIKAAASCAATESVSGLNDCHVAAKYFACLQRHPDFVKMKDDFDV
Sequence of SfurOBP1 (V5T8N5 entry or part of it): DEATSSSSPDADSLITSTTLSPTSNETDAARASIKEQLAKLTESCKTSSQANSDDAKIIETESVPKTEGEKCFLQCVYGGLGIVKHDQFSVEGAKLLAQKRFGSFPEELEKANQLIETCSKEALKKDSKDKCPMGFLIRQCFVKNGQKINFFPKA

Structure (SMILES): Cc1cc(C(C)(C)C)c(O)c(C(C)(C)C)c1 [BHT(2,6-di-tert-butyl-4-methylphenol)]
- Fluorescence competitive binding assay, OBP2 (raw fluorescence reading) (SfurOBP2; ligand concentration 2 (unit not given), replicate column 1 of 3): 17266
- Fluorescence competitive binding assay, OBP2 (raw fluorescence reading) (SfurOBP2; ligand concentration 2 (unit not given), replicate column 2 of 3): 17491
- Fluorescence competitive binding assay, OBP2 (raw fluorescence reading) (SfurOBP2; ligand concentration 2 (unit not given), replicate column 3 of 3): 17183
- Fluorescence competitive binding assay, OBP2 (raw fluorescence reading) (SfurOBP2; ligand concentration 4 (unit not given), replicate column 1 of 3): 14970
- Fluorescence competitive binding assay, OBP2 (raw fluorescence reading) (SfurOBP2; ligand concentration 4 (unit not given), replicate column 2 of 3): 16711
- Fluorescence competitive binding assay, OBP2 (raw fluorescence reading) (SfurOBP2; ligand concentration 4 (unit not given), replicate column 3 of 3): 16317
- Fluorescence competitive binding assay, OBP2 (raw fluorescence reading) (SfurOBP2; ligand concentration 6 (unit not given), replicate column 1 of 3): 15662
- Fluorescence competitive binding assay, OBP2 (raw fluorescence reading) (SfurOBP2; ligand concentration 6 (unit not given), replicate column 2 of 3): 16983
- Fluorescence competitive binding assay, OBP2 (raw fluorescence reading) (SfurOBP2; ligand concentration 6 (unit not given), replicate column 3 of 3): 15070
- Fluorescence competitive binding assay, OBP2 (raw fluorescence reading) (SfurOBP2; ligand concentration 8 (unit not given), replicate column 1 of 3): 15947
- Fluorescence competitive binding assay, OBP2 (raw fluorescence reading) (SfurOBP2; ligand concentration 8 (unit not given), replicate column 2 of 3): 15853
- Fluorescence competitive binding assay, OBP2 (raw fluorescence reading) (SfurOBP2; ligand concentration 8 (unit not given), replicate column 3 of 3): 15572
- Fluorescence competitive binding assay, OBP2 (raw fluorescence reading) (SfurOBP2; ligand concentration 10 (unit not given), replicate column 1 of 3): 14398
- Fluorescence competitive binding assay, OBP2 (raw fluorescence reading) (SfurOBP2; ligand concentration 10 (unit not given), replicate column 2 of 3): 14630
- Fluorescence competitive binding assay, OBP2 (raw fluorescence reading) (SfurOBP2; ligand concentration 10 (unit not given), replicate column 3 of 3): 15652
- Fluorescence competitive binding assay, OBP2 (raw fluorescence reading) (SfurOBP2; ligand concentration 12 (unit not given), replicate column 1 of 3): 14856
- Fluorescence competitive binding assay, OBP2 (raw fluorescence reading) (SfurOBP2; ligand concentration 12 (unit not given), replicate column 2 of 3): 14795
- Fluorescence competitive binding assay, OBP2 (raw fluorescence reading) (SfurOBP2; ligand concentration 12 (unit not given), replicate column 3 of 3): 14083
- Fluorescence competitive binding assay, OBP2 (raw fluorescence reading) (SfurOBP2; ligand concentration 14 (unit not given), replicate column 1 of 3): 12632
- Fluorescence competitive binding assay, OBP2 (raw fluorescence reading) (SfurOBP2; ligand concentration 14 (unit not given), replicate column 2 of 3): 13317
- Fluorescence competitive binding assay, OBP2 (raw fluorescence reading) (SfurOBP2; ligand concentration 14 (unit not given), replicate column 3 of 3): 14001
- Fluorescence competitive binding assay, OBP2 (raw fluorescence reading) (SfurOBP2; ligand concentration 16 (unit not given), replicate column 1 of 3): 12208
- Fluorescence competitive binding assay, OBP2 (raw fluorescence reading) (SfurOBP2; ligand concentration 16 (unit not given), replicate column 2 of 3): 12493
- Fluorescence competitive binding assay, OBP2 (raw fluorescence reading) (SfurOBP2; ligand concentration 16 (unit not given), replicate column 3 of 3): 12411
- Fluorescence competitive binding assay, OBP2 (raw fluorescence reading) (SfurOBP2; ligand concentration 18 (unit not given), replicate column 1 of 3): 12799
- Fluorescence competitive binding assay, OBP2 (raw fluorescence reading) (SfurOBP2; ligand concentration 18 (unit not given), replicate column 2 of 3): 12350
- Fluorescence competitive binding assay, OBP2 (raw fluorescence reading) (SfurOBP2; ligand concentration 18 (unit not given), replicate column 3 of 3): 11202
- Fluorescence competitive binding assay, OBP2 (raw fluorescence reading) (SfurOBP2; ligand concentration 20 (unit not given), replicate column 1 of 3): 12923
- Fluorescence competitive binding assay, OBP2 (raw fluorescence reading) (SfurOBP2; ligand concentration 20 (unit not given), replicate column 2 of 3): 12557
- Fluorescence competitive binding assay, OBP2 (raw fluorescence reading) (SfurOBP2; ligand concentration 20 (unit not given), replicate column 3 of 3): 10378
- Fluorescence intensity, fluorescence competitive binding assay, OBP11 (SfurOBP11; ligand concentration 2, replicate 1): 23825
- Fluorescence intensity, fluorescence competitive binding assay, OBP11 (SfurOBP11; ligand concentration 2, replicate 2): 22642
- Fluorescence intensity, fluorescence competitive binding assay, OBP11 (SfurOBP11; ligand concentration 2, replicate 3): 21527
- Fluorescence intensity, fluorescence competitive binding assay, OBP11 (SfurOBP11; ligand concentration 4, replicate 1): 20143
- Fluorescence intensity, fluorescence competitive binding assay, OBP11 (SfurOBP11; ligand concentration 4, replicate 2): 21258
- Fluorescence intensity, fluorescence competitive binding assay, OBP11 (SfurOBP11; ligand concentration 4, replicate 3): 22100
- Fluorescence intensity, fluorescence competitive binding assay, OBP11 (SfurOBP11; ligand concentration 6, replicate 1): 20464
- Fluorescence intensity, fluorescence competitive binding assay, OBP11 (SfurOBP11; ligand concentration 6, replicate 2): 20607
- Fluorescence intensity, fluorescence competitive binding assay, OBP11 (SfurOBP11; ligand concentration 6, replicate 3): 21862
- Fluorescence intensity, fluorescence competitive binding assay, OBP11 (SfurOBP11; ligand concentration 8, replicate 1): 19852
- Fluorescence intensity, fluorescence competitive binding assay, OBP11 (SfurOBP11; ligand concentration 8, replicate 2): 19956
- Fluorescence intensity, fluorescence competitive binding assay, OBP11 (SfurOBP11; ligand concentration 8, replicate 3): 20060
- Fluorescence intensity, fluorescence competitive binding assay, OBP11 (SfurOBP11; ligand concentration 10, replicate 1): 19539
- Fluorescence intensity, fluorescence competitive binding assay, OBP11 (SfurOBP11; ligand concentration 10, replicate 2): 18542
- Fluorescence intensity, fluorescence competitive binding assay, OBP11 (SfurOBP11; ligand concentration 10, replicate 3): 20536
- Fluorescence intensity, fluorescence competitive binding assay, OBP11 (SfurOBP11; ligand concentration 12, replicate 1): 18948
- Fluorescence intensity, fluorescence competitive binding assay, OBP11 (SfurOBP11; ligand concentration 12, replicate 2): 19227
- Fluorescence intensity, fluorescence competitive binding assay, OBP11 (SfurOBP11; ligand concentration 12, replicate 3): 18669
- Fluorescence intensity, fluorescence competitive binding assay, OBP11 (SfurOBP11; ligand concentration 14, replicate 1): 16147
- Fluorescence intensity, fluorescence competitive binding assay, OBP11 (SfurOBP11; ligand concentration 14, replicate 2): 16112
- Fluorescence intensity, fluorescence competitive binding assay, OBP11 (SfurOBP11; ligand concentration 14, replicate 3): 15881
- Fluorescence intensity, fluorescence competitive binding assay, OBP11 (SfurOBP11; ligand concentration 16, replicate 1): 16019
- Fluorescence intensity, fluorescence competitive binding assay, OBP11 (SfurOBP11; ligand concentration 16, replicate 2): 15985
- Fluorescence intensity, fluorescence competitive binding assay, OBP11 (SfurOBP11; ligand concentration 16, replicate 3): 16022
- Fluorescence intensity, fluorescence competitive binding assay, OBP11 (SfurOBP11; ligand concentration 18, replicate 1): 16028
- Fluorescence intensity, fluorescence competitive binding assay, OBP11 (SfurOBP11; ligand concentration 18, replicate 2): 15902
- Fluorescence intensity, fluorescence competitive binding assay, OBP11 (SfurOBP11; ligand concentration 18, replicate 3): 15995
- Fluorescence intensity, fluorescence competitive binding assay, OBP11 (SfurOBP11; ligand concentration 20, replicate 1): 15978
- Fluorescence intensity, fluorescence competitive binding assay, OBP11 (SfurOBP11; ligand concentration 20, replicate 2): 15860
- Fluorescence intensity, fluorescence competitive binding assay, OBP11 (SfurOBP11; ligand concentration 20, replicate 3): 15984
- Fluorescence competitive binding assay, fluorescence intensity (SfurOBP3; ligand concentration 2): 62922 and 62019 and 61313
- Fluorescence competitive binding assay, fluorescence intensity (SfurOBP3; ligand concentration 4): 80496 and 109930 and 48944
- Fluorescence competitive binding assay, fluorescence intensity (SfurOBP3; ligand concentration 6): 58503 and 58107 and 50633
- Fluorescence competitive binding assay, fluorescence intensity (SfurOBP3; ligand concentration 8): 41822 and 72799 and 53759
- Fluorescence competitive binding assay, fluorescence intensity (SfurOBP3; ligand concentration 10): 69788 and 72654 and 85946
- Fluorescence competitive binding assay, fluorescence intensity (SfurOBP3; ligand concentration 12): 60000 and 90914 and 74114
- Fluorescence competitive binding assay, fluorescence intensity (SfurOBP3; ligand concentration 14): 74285 and 75475 and 71382
- Fluorescence competitive binding assay, fluorescence intensity (SfurOBP3; ligand concentration 16): 52587 and 87313 and 65294
- Fluorescence competitive binding assay, fluorescence intensity (SfurOBP3; ligand concentration 18): 52719 and 70169 and 103842
- Fluorescence competitive binding assay, fluorescence intensity (SfurOBP3; ligand concentration 20): 122349 and 93664 and 80933
- Fluorescence competitive binding assay, fluorescence intensity (SfurOBP1; ligand concentration 2 (μM)): 6030 and 6058 and 6096
- Fluorescence competitive binding assay, fluorescence intensity (SfurOBP1; ligand concentration 4 (μM)): 6092 and 6318 and 6150
- Fluorescence competitive binding assay, fluorescence intensity (SfurOBP1; ligand concentration 6 (μM)): 6520 and 6547 and 6496
- Fluorescence competitive binding assay, fluorescence intensity (SfurOBP1; ligand concentration 8 (μM)): 6548 and 6679 and 6600
- Fluorescence competitive binding assay, fluorescence intensity (SfurOBP1; ligand concentration 10 (μM)): 6739 and 6709 and 6666
- Fluorescence competitive binding assay, fluorescence intensity (SfurOBP1; ligand concentration 12 (μM)): 6775 and 6778 and 6802
- Fluorescence competitive binding assay, fluorescence intensity (SfurOBP1; ligand concentration 14 (μM)): 6847 and 6906 and 6978
- Fluorescence competitive binding assay, fluorescence intensity (SfurOBP1; ligand concentration 16 (μM)): 6943 and 7135 and 6900
- Fluorescence competitive binding assay, fluorescence intensity (SfurOBP1; ligand concentration 18 (μM)): 7439 and 7058 and 7176
- Fluorescence competitive binding assay, fluorescence intensity (SfurOBP1; ligand concentration 20 (μM)): 7203 and 7412 and 7729
